Test results: patent US20260055088A1, “HETEROCYCLIC COMPOUND, METHOD FOR PREPARING SAME, AND PHARMACEUTICAL USE THEREOF” (Jiangsu Hengrui Pharmaceuticals Co., Ltd., priority 2022, published 2026)
Counter-ions that a name gives are not always drawn.

Molecular target: Nav1.8 ion channel stably expressed on HEK293 cells (Homo sapiens (Human), UniProt Q9Y5Y9)
Experiment: Inhibitory activity against Nav1.8, manual patch clamp
Format: cell-based
Conditions: resting protocol (-80 mV to 10 mV), 1 μM TTX, read-out: IC50 for the inhibition of Nav1.8 channel activity
From the text: The objective of the experiment was to investigate the effects of the compounds on the Nav1.8 ion channel in ex vivo experiments. The Nav1.8 ion channel is stably expressed on HEK293 cells. After the Nav1.8 current stabilized, the effects of the compounds on the Nav1.8 ion channel were obtained by comparing the magnitudes of the Nav1.8 currents before and after the compounds were applied.
• 1) A patch clamp amplifier: patch clamp PC-505B (WARNER instruments)/MultiClamp 700A (Axon instrument) • 2) A digital-to-analog converter: Digidata 1440A (Axon CNS)/Digidata 1550A (Axon instruments) • 3) A micromanipulator: MP-225 (SUTTER instrument) • 4) An inverted microscope: TL4 (Olympus) • 5) Glass micropipette puller: PC-10 (NARISHIGE) • 6) Microelectrode glass capillaries: B12024F (Wuhan VitalSense Scientific Instruments Co., Ltd.) • 7) Dimethyl sulfoxide (DMSO) D2650 (Sigma-Aldrich) • 8) TTX AF3014 (Affix Scientific)
The compounds for preparing the intracellular and extracellular fluids were purchased from Sigma (St. Louis, MO) except for the NaOH and KOH for the acid-base titrations. The extracellular fluid (mM) was: NaCl, 137; KCl, 4; CaCl2, 1.8; MgCl2, 1; HEPES, 10; glucose, 10; pH 7.4 (NaOH titration). The intracellular fluid (mM) was: aspartic acid, 140; MgCl2, 2; EGTA, 11; HEPES, 10; pH 7.2 (CsOH titration). All test and control compound solutions contained 1 μM TTX.
The test compounds were stored at a concentration of 9 mM in dimethyl sulfoxide (DMSO). On the testing day, the compounds were further dissolved in the extracellular fluid to prepare the required concentrations.
1) After the compounds were prepared into solutions with specified concentrations, the compound solutions were sequentially added to channels in ascending order according to their concentrations, and each channel was labeled.
2) A cell was transferred to the perfusion chamber. Positive pressure was applied inside the electrode, and the electrode tip was brought into contact with the cell. The three-way valve of the suction device was switched to the state where all three ways were open, and negative pressure was then applied to the electrode, allowing a high-resistance seal to form between the electrode and the cell. The application of negative pressure was continued to rupture the cell membrane, leading to the formation of a current pathway.
3) After the cell membrane rupture current stabilized, perfusion was performed with different concentrations in sequence. If the current remained stable for at least one minute, perfusion was performed with the next concentration.
4) The perfusion chamber was cleaned. The perfusion chamber was rinsed with the compound solutions in descending order according to their concentrations, with each concentration applied for 20 s. Finally, the perfusion chamber was rinsed with the extracellular fluid for 1 min.
The cell was clamped at −80 mV and then depolarized to 10 mV using a square wave lasting for 10 ms to obtain a Nav1.8 current. This procedure was repeated once every 5 seconds. The maximum current induced by the square wave was detected. After the current stabilized, perfusion was performed with the test compounds. After the reaction stabilized, the strength of the blocking was calculated.
The data were stored on a computer system and analyzed. Data acquisition and analysis were performed using pCLAMP 10 (Molecular Devices, Union City, CA), and the results were reviewed by a manager. “Current stabilized” means that the changes in current over time were within a limited range. The magnitude of the current after stabilization was used to calculate the effect of the compound at this […].
The inhibitory activity of the compounds of the present disclosure against Nav1.8 was determined through the above assay.

| Structure (SMILES) | IC50 |
| --- | --- |
| COc1c([C@H]2[C@H](C(=O)Nc3ccnc(OC[C@H](O)CO)c3)O[C@@](C)(C(F)(F)F)[C@H]2C)ccc(F)c1F [Example 2, (2R,3S,4S,5R)-3-(3,4-Difluoro-2-methoxyphenyl)-N-(2-((R)-2,3-dihydroxypropoxy)pyridin-4-yl)-4,5-dimethyl-5-(trifluoromethyl)tetrahydrofuran-2-carboxamide] | 2.89 nM |
| COc1c([C@H]2[C@H](C(=O)Nc3ccnc(C(C)(C)O)c3)O[C@@](C)(C(F)(F)F)[C@H]2C)ccc(F)c1F [Example 3, (2R,3S,4S,5R)-3-(3,4-Difluoro-2-methoxyphenyl)-N-(2-(2-hydroxypropan-2-yl)pyridin-4-yl)-4,5-dimethyl-5-(trifluoromethyl)tetrahydrofuran-2-carboxamide] | 2.65 nM |
| CONC(=O)c1cc(NC(=O)[C@@H]2O[C@@](C)(C(F)(F)F)[C@@H](C)[C@H]2c2ccc(F)c(F)c2OC)ccn1 [Example 5, 4-((2R,3S,4S,5R)-3-(3,4-Difluoro-2-methoxyphenyl)-4,5-dimethyl-5-(trifluoromethyl)tetrahydrofuran-2-carboxamido)-N-methoxypicolinamide] | 0.71 nM |
| COc1c([C@H]2[C@H](C(=O)Nc3ccnc(C(N)CO)c3)O[C@@](C)(C(F)(F)F)[C@H]2C)ccc(F)c1F (stereo partly drawn) [Example 6, (2R,3S,4S,5R)—N-(2-(1-Amino-2-hydroxyethyl)pyridin-4-yl)-3-(3,4-difluoro-2-methoxyphenyl)-4,5-dimethyl-5-(trifluoromethyl)tetrahydrofuran-2-carboxamide] | 1.87 nM |
| COc1c([C@H]2[C@H](C(=O)Nc3ccnc(NC(N)=O)c3)O[C@@](C)(C(F)(F)F)[C@H]2C)ccc(F)c1F [Example 9, (2R,3S,4S,5R)-3-(3,4-Difluoro-2-methoxyphenyl)-4,5-dimethyl-5-(trifluoromethyl)-N-(2-ureidopyridin-4-yl)tetrahydrofuran-2-carboxamide] | 3.24 nM |
| COc1c([C@H]2[C@H](C(=O)Nc3ccnc(NC(C)=O)c3)O[C@@](C)(C(F)(F)F)[C@H]2C)ccc(F)c1F [Example 11, (2R,3S,4S,5R)—N-(2-Acetamidopyridin-4-yl)-3-(3,4-difluoro-2-methoxyphenyl)-4,5-dimethyl-5-(trifluoromethyl)tetrahydrofuran-2-carboxamide] | 1.54 nM |
| COc1c([C@H]2[C@H](C(=O)Nc3ccnc(C(=O)N4CCCN4)c3)O[C@@](C)(C(F)(F)F)[C@H]2C)ccc(F)c1F [Example 14, (2R,3S,4S,5R)-3-(3,4-Difluoro-2-methoxyphenyl)-4,5-dimethyl-N-(2-(pyrazolidine-1-carbonyl)pyridin-4-yl)-5-(trifluoromethyl)tetrahydrofuran-2-carboxamide] | 2.12 nM |
| COc1c([C@H]2[C@H](C(=O)Nc3ccnc(C(=O)N4CCCO4)c3)O[C@@](C)(C(F)(F)F)[C@H]2C)ccc(F)c1F [Example 15, (2R,3S,4S,5R)-3-(3,4-Difluoro-2-methoxyphenyl)-N-(2-(isoxazolidine-2-carbonyl)pyridin-4-yl)-4,5-dimethyl-5-(trifluoromethyl)tetrahydrofuran-2-carboxamide] | 1.78 nM |
| COc1c([C@H]2[C@H](C(=O)Nc3ccnc(C(=O)NOCC4CC4)c3)O[C@@](C)(C(F)(F)F)[C@H]2C)ccc(F)c1F [Example 18, N-(Cyclopropylmethoxy)-4-((2R,3S,4S,5R)-3-(3,4-difluoro-2-methoxyphenyl)-4,5-dimethyl-5-(trifluoromethyl)tetrahydrofuran-2-carboxamido)picolinamide] | 1.89 nM |
| CNNC(=O)c1cc(NC(=O)[C@@H]2O[C@@](C)(C(F)(F)F)[C@@H](C)[C@H]2c2ccc(F)c(F)c2OC)ccn1 [Example 19, (2R,3S,4S,5R)-3-(3,4-Difluoro-2-methoxyphenyl)-4,5-dimethyl-N-(2-(2-methylhydrazine-1-carbonyl)pyridin-4-yl)-5-(trifluoromethyl)tetrahydrofuran-2-carboxamide] | 1.01 nM |
| C/N=C(\N)c1cc(NC(=O)[C@@H]2O[C@@](C)(C(F)(F)F)[C@@H](C)[C@H]2c2ccc(F)c(F)c2OC)ccn1 [Example 21, (2R,3S,4S,5R)-3-(3,4-Difluoro-2-methoxyphenyl)-4,5-dimethyl-N-(2-((Z)—N′-methylcarbamimidoyl)pyridin-4-yl)-5-(trifluoromethyl)tetrahydrofuran-2-carboxamide] | 1.35 nM |
| CCNNC(=O)c1cc(NC(=O)[C@@H]2O[C@@](C)(C(F)(F)F)[C@@H](C)[C@H]2c2ccc(F)c(F)c2OC)ccn1 [Example 22, (2R,3S,4S,5R)-3-(3,4-Difluoro-2-methoxyphenyl)-N-(2-(2-ethylhydrazine-1-carbonyl)pyridin-4-yl)-4,5-dimethyl-5-(trifluoromethyl)tetrahydrofuran-2-carboxamide] | 0.68 nM |
| COc1c([C@H]2[C@H](C(=O)Nc3ccnc(C(=O)NNC4CC4)c3)O[C@@](C)(C(F)(F)F)[C@H]2C)ccc(F)c1F [Example 23, (2R,3S,4S,5R)—N-(2-(2-Cyclopropylhydrazine-1-carbonyl)pyridin-4-yl)-3-(3,4-difluoro-2-methoxyphenyl)-4,5-dimethyl-5-(trifluoromethyl)tetrahydrofuran-2-carboxamide] | 2.85 nM |
| COc1c([C@H]2[C@H](C(=O)Nc3ccnc(C(=O)NN(C)C)c3)O[C@@](C)(C(F)(F)F)[C@H]2C)ccc(F)c1F [Example 24, (2R,3S,4S,5R)-3-(3,4-Difluoro-2-methoxyphenyl)-N-(2-(2,2-dimethylhydrazine-1-carbonyl)pyridin-4-yl)-4,5-dimethyl-5-(trifluoromethyl)tetrahydrofuran-2-carboxamide] | 2.12 nM |
| COc1c([C@H]2[C@H](C(=O)Nc3ccnc(C(=O)C(N)=O)c3)O[C@@](C)(C(F)(F)F)[C@H]2C)ccc(F)c1F [Example 26, (2R,3S,4S,5R)—N-(2-(2-Amino-2-oxoacetyl)pyridin-4-yl)-3-(3,4-difluoro-2-methoxyphenyl)-4,5-dimethyl-5-(trifluoromethyl)tetrahydrofuran-2-carboxamide trifluoroacetate] | 1.09 nM |
| COc1c([C@H]2[C@H](C(=O)Nc3ccc(F)c(C(=N)N)c3)O[C@@](C)(C(F)(F)F)[C@H]2C)ccc(F)c1F [Example 27, (2R,3S,4S,5R)—N-(3-Carbamimidoyl-4-fluorophenyl)-3-(3,4-difluoro-2-methoxyphenyl)-4,5-dimethyl-5-(trifluoromethyl)tetrahydrofuran-2-carboxamide] | < 0.16 nM |
| [2H]C([2H])([2H])O/N=C(\N)c1cc(NC(=O)[C@@H]2O[C@@](C)(C(F)(F)F)[C@@H](C)[C@H]2c2ccc(F)c(F)c2OC)ccn1 [Example 37, (2R,3S,4S,5R)-3-(3,4-Difluoro-2-methoxyphenyl)-N-(2-((Z)—(N′-methoxy-d3)carbamimidoyl)pyridin-4-yl)-4,5-dimethyl-5-(trifluoromethyl)tetrahydrofuran-2-carboxamide] | 1.86 nM |
| COc1c([C@H]2[C@H](C(=O)Nc3ccnc(OCC(O)C4(O)CC4)c3)O[C@@](C)(C(F)(F)F)[C@H]2C)ccc(F)c1F (stereo partly drawn) [Example 39, (2R,3S,4S,5R)-3-(3,4-Difluoro-2-methoxyphenyl)-N-(2-(2-hydroxy-2-(1-hydroxycyclopropyl)ethoxy)pyridin-4-yl)-4,5-dimethyl-5-(trifluoromethyl)tetrahydrofuran-2-carboxamide] | 2.68 nM |
| CO/N=C(\N)c1cc(NC(=O)[C@@H]2O[C@@](C)(C(F)(F)F)[C@@H](C)[C@H]2c2ccc(F)c(F)c2OC)cc[n+]1[O-] [Example 44, 4-((2R,3S,4S,5R)-3-(3,4-Difluoro-2-methoxyphenyl)-4,5-dimethyl-5-(trifluoromethyl)tetrahydrofuran-2-carboxamido)-2-((Z)—N′-methoxycarbamimidoyl)pyridine 1-oxide] | 0.53 nM |
